Measurements reported in PubChem BioAssay AID1963959 (Molecular Pharmacology Branch, DTP, NCI, 2024).

System: T-47D spheroids with HUVEC/MSC, viability
Test: Anticancer human tumor T-47D cell line growth inhibition [PI3K];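 also: spheroids exposed to agents for seven days before reading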;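 as to viability, T/C: percent of DMSO vehicle control luminescence so 100% = untreated growth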
Conditions: for IC50: curve of first compound; for viability, T/C: stronger effect = lower value
Outline: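 Viability of mixed-cell spheroids was determined after exposure to pairwise combinations, one partner being inavolisib, alpelisib, duvelisib or copanlisib. Highest tested concentration matched clinical Cmax where known and 10 microM where not, descending in half-log steps.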

[1] = second compound 0.0316 µM, first compound 0.0316 µM
[2] = second compound 0.0316 µM, first compound 0.1 µM
[3] = second compound 0.0316 µM, first compound 0.316 µM
[4] = second compound 0.0316 µM, first compound 1 µM
[5] = second compound 0.0316 µM, first compound 3.16 µM
[6] = second compound 0.0316 µM, first compound 10 µM
[7] = second compound 0.1 µM, first compound 0.0316 µM
[8] = second compound 0.1 µM, first compound 0.1 µM
[9] = second compound 0.1 µM, first compound 0.316 µM
[10] = second compound 0.1 µM, first compound 1 µM
[11] = second compound 0.1 µM, first compound 3.16 µM
[12] = second compound 0.1 µM, first compound 10 µM
[13] = second compound 0.316 µM, first compound 0.0316 µM
[14] = second compound 0.316 µM, first compound 0.1 µM
[15] = second compound 0.316 µM, first compound 0.316 µM
[16] = second compound 0.316 µM, first compound 1 µM
[17] = second compound 0.316 µM, first compound 3.16 µM
[18] = second compound 0.316 µM, first compound 10 µM
[19] = second compound 1 µM, first compound 0.0316 µM
[20] = second compound 1 µM, first compound 0.1 µM
[21] = second compound 1 µM, first compound 0.316 µM
[22] = second compound 1 µM, first compound 1 µM
[23] = second compound 1 µM, first compound 3.16 µM
[24] = second compound 1 µM, first compound 10 µM

`CCCS(=O)(=O)Nc1ccc(F)c(C(=O)c2c[nH]c3ncc(-c4ccc(Cl)cc4)cc23)c1F` + Cc1nc(NC(=O)N2CCCC2C(N)=O)sc1-c1ccnc(C(C)(C)C(F)(F)F)c1 was tested, and the IC50 (second compound 0.0316 µM) was 9.2 µM, the IC50 (second compound 0.1 µM) was 8.1 µM and the IC50 (second compound 0.316 µM) was 7.63 µM. For the same molecule, the IC50 (second compound 1 µM) was 7.35 µM, the IC50 (second compound 3.16 µM) was 4.41 µM and the IC50 (second compound 10 µM) was < 0.0316 µM. It also gave a viability, T/C [1] of 95.4%, a viability, T/C [2] of 92.7% and a viability, T/C [3] of 100%. The viability, T/C [4] was 94.4%, the viability, T/C [5] was 108% and the viability, T/C [6] was 46.1%. For the same molecule, the viability, T/C [7] was 93.1%, the viability, T/C [8] was 92.5% and the viability, T/C [9] was 107%. For the same molecule, the viability, T/C [10] was 91.4%, the viability, T/C [11] was 85.9% and the viability, T/C [12] was 41.7%. For the same molecule, the viability, T/C [13] was 99.8%, the viability, T/C [14] was 93% and the viability, T/C [15] was 89.3%. It also gave a viability, T/C [16] of 90.5%, a viability, T/C [17] of 76% and a viability, T/C [18] of 41.7%. It also gave a viability, T/C [19] of 83.5%, a viability, T/C [20] of 82.3% and a viability, T/C [21] of 81.5%. For the same molecule, the viability, T/C [22] was 78.3%, the viability, T/C [23] was 78.4% and the viability, T/C [24] was 39.7%. It also gave a viability, T/C (second compound 3.16 µM, first compound 0.0316 µM) of 75.3%, a viability, T/C (second compound 3.16 µM, first compound 0.1 µM) of 76.9% and a viability, T/C (second compound 3.16 µM, first compound 0.316 µM) of 79%. For the same molecule, the viability, T/C (second compound 3.16 µM, first compound 1 µM) was 81.5%, the viability, T/C (second compound 3.16 µM, first compound 3.16 µM) was 56% and the viability, T/C (second compound 3.16 µM, first compound 10 µM) was 35%. For the same molecule, the viability, T/C (second compound 10 µM, first compound 0.0316 µM) was 35.3%, the viability, T/C (second compound 10 µM, first compound 0.1 µM) was 40.7% and the viability, T/C (second compound 10 µM, first compound 0.316 µM) was 41.2%. It also gave a viability, T/C (second compound 10 µM, first compound 1 µM) of 37.8%, a viability, T/C (second compound 10 µM, first compound 3.16 µM) of 38.3% and a viability, T/C (second compound 10 µM, first compound 10 µM) of 32.8%.

In the case of `C#Cc1c(F)ccc2cc(O)cc(-c3ncc4c(N5CC6CCC(C5)N6)nc(OCC56CCCN5CC(F)C6)nc4c3F)c12` (centres undefined) + CC(Nc1ccc2c(c1)OCCn1cc(N3C(=O)OCC3C(F)F)nc1-2)C(N)=O, the IC50 (second compound 0.00316 µM) is reported as > 10 µM, the IC50 (second compound 0.01 µM) is reported as > 10 µM and the IC50 (second compound 0.0316 µM) is reported as > 10 µM. For the same molecule, the IC50 (second compound 0.1 µM) was > 10 µM, the IC50 (second compound 0.316 µM) was > 10 µM and the IC50 (second compound 1 µM) was > 10 µM. It also gave a viability, T/C (second compound 0.00316 µM, first compound 0.0316 µM) of 96.3%, a viability, T/C (second compound 0.00316 µM, first compound 0.1 µM) of 85.3% and a viability, T/C (second compound 0.00316 µM, first compound 0.316 µM) of 85.6%. For the same molecule, the viability, T/C (second compound 0.00316 µM, first compound 1 µM) was 78.3%, the viability, T/C (second compound 0.00316 µM, first compound 3.16 µM) was 90.9% and the viability, T/C (second compound 0.00316 µM, first compound 10 µM) was 84.1%. The viability, T/C (second compound 0.01 µM, first compound 0.0316 µM) was 107%, the viability, T/C (second compound 0.01 µM, first compound 0.1 µM) was 82.3% and the viability, T/C (second compound 0.01 µM, first compound 0.316 µM) was 102%. It also gave a viability, T/C (second compound 0.01 µM, first compound 1 µM) of 100%, a viability, T/C (second compound 0.01 µM, first compound 3.16 µM) of 95.2% and a viability, T/C (second compound 0.01 µM, first compound 10 µM) of 92.9%. The viability, T/C [1] was 83.3%, the viability, T/C [2] was 77.8% and the viability, T/C [3] was 97.8%. The viability, T/C [4] was 79%, the viability, T/C [5] was 94.6% and the viability, T/C [6] was 89.1%. For the same molecule, the viability, T/C [7] was 99.8%, the viability, T/C [8] was 83% and the viability, T/C [9] was 79%. The viability, T/C [10] was 88.6%, the viability, T/C [11] was 91.1% and the viability, T/C [12] was 81.4%. The viability, T/C [13] was 62.7%, the viability, T/C [14] was 70.7% and the viability, T/C [15] was 76.8%. For the same molecule, the viability, T/C [16] was 59.9%, the viability, T/C [17] was 70.8% and the viability, T/C [18] was 61.3%. It also gave a viability, T/C [19] of 48.8%, a viability, T/C [20] of 55.3% and a viability, T/C [21] of 61.2%. For the same molecule, the viability, T/C [22] was 43.7%, the viability, T/C [23] was 46.1% and the viability, T/C [24] was 62.5%.
